Results: patent US11161846B2, “Substituted pyrazolo[4,3-b]pyridines and their use as GluN2B receptor modulators” (JANSSEN PHARMACEUTICA NV, priority 2019, dated 2021)
Structures can show the parent of a compound that is named as a salt.

Biological target: T1, human GluN1/GluN2B NMDA receptors (Homo sapiens, UniProt Q05586+Q13224)
T1 construct: expressed in transfected cells
Experiment: Calcium flux (FLIPR) assay on cloned human NR1/GluN2B ion channels expressed in mammalian cells, standard assay
Assay type: cell-based
Conditions: glutamate ~EC40 and 10 μM glycine, stable cell line with Tet-On induced expression
Description: Effects of Test Articles on Cloned Human NR1/GluN2B Ion Channels Expressed in Mammalian Cells
NMDA receptors are ion channels that are highly permeable to Ca^2+ ions, rendering it possible to monitor NMDA receptor function using cell-based calcium flux assay. In this assay, co-agonists glutamate and glycine are added to cells heterologously expressing human GluN1/GluN2B NMDA receptors to initiate cellular Ca^2+ influx. The time course of the changes in intracellular calcium is measured using a fluorescent dye and a FLIPR (Fluorometric Imaging Plate Reader) device.
Twenty four hours before measurements, the expression of the NMDA receptors in the stable cell line is induced with Tet-On inducible system in the presence of a non-selective NMDA receptor blocker. On the day of the experiment, cell culture media is carefully washed and the cells are loaded with Calcium 5 Dye Kit (Molecular Devices) in dye loading buffer containing 137 mM NaCl, 4 mM KCl, 2 mM CaCl2, 0.5 mM MgCl2 (standard assay) or 1.5 mM MgCl2 (HTS assay), 10 mM HEPES and 5 mM D-glucose; pH 7.4. After 1 h incubation at the room temperature, the dye is washed away with the assay buffer (137 mM NaCl (standard assay) or 150 mM (HTS assay), 4 mM KCl (standard assay) or 3 mM (HTS assay), 2 mM CaC2, 0.01 mM EDTA, 10 mM HEPES and 5 mM D-glucose; pH 7.4) In the FLIPR TETRA reader, various concentrations of the test compounds are added to the cells for 5 min while fluorescence is monitored to detect potential agonist activity. Next, co-agonists, glutamate and glycine are added for another 5 minutes. The concentration of glutamate corresponding to ˜EC40 (standard assay) or EC40 (HTS assay) is used to maximize the assay's signal window and ability to detect NMDA receptor antagonists and negative allosteric modulators. A saturating concentration (10 μM) of glycine is also present in the assay. A non-selective NMDA receptor antagonist, (+)MK-801 is used as a positive control for antagonist activity. The fluorescent signal in the presence of test compounds is quantified and normalized to the signal defined by the appropriate control wells.

T1 sequence (Q13224 27-1484, other chains not shown): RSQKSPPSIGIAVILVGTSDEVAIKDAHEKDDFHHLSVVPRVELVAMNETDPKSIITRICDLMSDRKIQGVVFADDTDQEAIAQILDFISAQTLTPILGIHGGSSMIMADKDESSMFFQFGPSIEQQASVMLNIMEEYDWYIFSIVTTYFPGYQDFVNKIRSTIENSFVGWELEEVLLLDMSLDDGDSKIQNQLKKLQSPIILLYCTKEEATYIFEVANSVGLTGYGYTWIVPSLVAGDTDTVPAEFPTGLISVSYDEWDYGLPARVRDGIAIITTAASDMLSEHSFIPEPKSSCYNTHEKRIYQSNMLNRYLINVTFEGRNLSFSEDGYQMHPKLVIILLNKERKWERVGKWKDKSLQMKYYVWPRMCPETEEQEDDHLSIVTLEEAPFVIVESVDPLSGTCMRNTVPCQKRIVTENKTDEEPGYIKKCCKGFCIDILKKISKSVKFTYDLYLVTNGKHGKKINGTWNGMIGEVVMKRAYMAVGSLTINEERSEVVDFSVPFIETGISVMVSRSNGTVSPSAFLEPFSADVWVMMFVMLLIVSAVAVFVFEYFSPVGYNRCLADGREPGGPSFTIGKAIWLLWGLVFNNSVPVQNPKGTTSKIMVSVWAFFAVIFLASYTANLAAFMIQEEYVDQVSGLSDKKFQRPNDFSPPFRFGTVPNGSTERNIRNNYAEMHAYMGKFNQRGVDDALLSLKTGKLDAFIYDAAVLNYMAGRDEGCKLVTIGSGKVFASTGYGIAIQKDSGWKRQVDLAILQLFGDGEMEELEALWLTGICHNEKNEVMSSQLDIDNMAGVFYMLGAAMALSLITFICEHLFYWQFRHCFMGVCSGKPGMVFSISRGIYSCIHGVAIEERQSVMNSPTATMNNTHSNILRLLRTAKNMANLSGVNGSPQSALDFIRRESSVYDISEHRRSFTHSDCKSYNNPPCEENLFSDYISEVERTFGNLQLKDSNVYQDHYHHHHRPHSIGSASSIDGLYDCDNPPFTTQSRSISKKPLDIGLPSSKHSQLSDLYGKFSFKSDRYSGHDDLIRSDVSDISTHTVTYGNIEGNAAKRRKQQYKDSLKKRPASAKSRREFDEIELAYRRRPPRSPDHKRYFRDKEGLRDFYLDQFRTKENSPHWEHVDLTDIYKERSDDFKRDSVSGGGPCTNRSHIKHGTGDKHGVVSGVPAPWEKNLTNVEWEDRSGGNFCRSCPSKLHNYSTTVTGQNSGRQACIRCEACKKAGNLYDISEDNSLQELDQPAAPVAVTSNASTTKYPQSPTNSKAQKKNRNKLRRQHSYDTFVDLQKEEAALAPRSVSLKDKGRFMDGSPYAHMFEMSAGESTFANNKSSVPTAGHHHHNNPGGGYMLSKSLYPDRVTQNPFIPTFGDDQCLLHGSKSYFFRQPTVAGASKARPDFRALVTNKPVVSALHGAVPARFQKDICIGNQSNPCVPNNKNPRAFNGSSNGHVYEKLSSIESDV

SMILES | IC50 [nM]
CC(C)C(O)Cn1ncc2ncc(-c3cc(F)c(F)c(F)c3)cc21 (racemic) [Example 97, (RS)-3-Methyl-1-[6-(3,4,5-trifluorophenyl)pyrazolo[4,3-b]pyridin-1-yl]butan-2-ol] | 591
CC(C)C(O)Cn1ncc2ncc(-c3cccc(C(F)(F)F)c3)cc21 (racemic) [Example 3, (RS)-3-Methyl-1-[6-[3-(trifluoromethyl)phenyl]pyrazolo[4,3-b]pyridin-1-yl]butan-2-ol] | 567
COCCC(O)Cn1ncc2ncc(-c3cccc(C(F)(F)F)c3)cc21 (racemic) [Example 90, (RS)-4-Methoxy-1-[6-[3-(trifluoromethyl)phenyl]pyrazolo[4,3-b]pyridin-1-yl]butan-2-ol] | 1420
O=C(Cn1ncc2ncc(-c3ccc(F)c(C(F)F)c3)cc21)c1ccc(F)cn1 [Example 15, 2-(6-(3-(Difluoromethyl)-4-fluorophenyl)-1H-pyrazolo[4,3-b]pyridin-1-yl)-1-(5-fluoropyridin-2-yl)ethan-1-one] | 160
CC[S+]([O-])Cn1ncc2ncc(-c3cccc(F)c3)cc21 (racemic) [Example 80, (RS)-1-(Ethylsulfinylmethyl)-6-(3-fluorophenyl)pyrazolo[4,3-b]pyridine] | 823
CN1CC(Cn2ncc3ncc(-c4ccc(F)c(OC(F)F)c4)cc32)CC1=O (racemic) [Example 19, (RS)-4-[[6-[3-(Difluoromethoxy)-4-fluoro-phenyl]pyrazolo[4,3-b]pyridin-1-yl]methyl]-1-methyl-pyrrolidin-2-one] | 992
OC(Cn1ncc2ncc(-c3ccc(F)c(C(F)F)c3)cc21)C1CC1 (racemic) [Example 104, (RS)-1-Cyclopropyl-2-(6-(3-(difluoromethyl)-4-fluorophenyl)-1H-pyrazolo[4,3-b]pyridin-1-yl)ethan-1-ol] | 165
CCC(O)Cn1ncc2ncc(-c3ccc(Cl)c(OC(F)F)c3)cc21 (racemic) [Example 93, (RS)-1-[6-[4-Chloro-3-(difluoromethoxy)phenyl]pyrazolo[4,3-b]pyridin-1-yl]butan-2-ol] | 415
CN1CCC(Cn2ncc3ncc(-c4ccc(F)c(C(F)F)c4)cc32)C1=O (racemic) [Example 116, (RS)-3-[[6-[3-(Difluoromethyl)-4-fluoro-phenyl]pyrazolo[4,3-b]pyridin-1-yl]methyl]-1-methyl-pyrrolidin-2-one] | 303
CC[S+]([O-])Cn1ncc2ncc(-c3cc(F)c(F)c(F)c3)cc21 (racemic) [Example 88, (RS)-1-(Ethylsulfinylmethyl)-6-(3,4,5-trifluorophenyl)pyrazolo[4,3-b]pyridine] | 736
CN1C[C@@H](Cn2ncc3ncc(-c4ccc(F)c(C(F)F)c4)cc32)OC1=O [Example 130, (5S)-5-[[6-[3-(Difluoromethyl)-4-fluoro-phenyl]pyrazolo[4,3-b]pyridin-1-yl]methyl]-3-methyl-oxazolidin-2-one] | 478
CN1C(=O)CCC1Cn1ncc2ncc(-c3ccc(F)c(C(F)F)c3)cc21 (racemic) [Example 115, (RS)-5-[[6-[3-(Difluoromethyl)-4-fluoro-phenyl]pyrazolo[4,3-b]pyridin-1-yl]methyl]-1-methyl-pyrrolidin-2-one] | > 3000
CN1CC(Cn2ncc3ncc(-c4ccc(F)c(OC(F)F)c4)cc32)OC1=O (racemic) [Example 128, (RS)-5-((6-(3-(Difluoromethoxy)-4-fluorophenyl)-1H-pyrazolo[4,3-b]pyridin-1-yl)methyl)-3-methyloxazolidin-2-one] | 165
CC1(Cn2ncc3ncc(-c4ccc(F)c(C(F)F)c4)cc32)COC1 [Example 110, 6-[3-(Difluoromethyl)-4-fluoro-phenyl]-1-[(3-methyloxetan-3-yl)methyl]pyrazolo[4,3-b]pyridine] | 2060

The next compounds have a lower IC50 than those just listed; values first:

IC50 [nM] | SMILES
46 | CCC(=O)Cn1ncc2ncc(-c3cccc(F)c3F)cc21 [Example 33, 1-[6-(2,3-Difluorophenyl)pyrazolo[4,3-b]pyridin-1-yl]butan-2-one]
90 | Cc1cc(F)ccc1-c1cnc2cnn(CC(=O)C(C)C)c2c1 [Example 52, 1-[6-(4-Fluoro-2-methyl-phenyl)pyrazolo[4,3-b]pyridin-1-yl]-3-methyl-butan-2-one]
74 | O=C(Cn1ncc2ncc(-c3ccc(F)c(C(F)F)c3)cc21)c1cnccn1 [Example 142, 2-(6-(3-(Difluoromethyl)-4-fluorophenyl)-1H-pyrazolo[4,3-b]pyridin-1-yl)-1-(pyrazin-2-yl)ethan-1-one]
120 | CN1C[C@H](Cn2ncc3ncc(-c4ccc(F)c(C(F)F)c4)cc32)CC1=O [Example 122, (R)-4-[[6-[3-(Difluoromethyl)-4-fluoro-phenyl]pyrazolo[4,3-b]pyridin-1-yl]methyl]-1-methyl-pyrrolidin-2-one]
23 | Fc1ccc(-c2cnc3cnn(CC4CCOC4)c3c2)cc1C(F)F (racemic) [Example 113, (RS)-6-[3-(Difluoromethyl)-4-fluoro-phenyl]-1-(tetrahydrofuran-3-ylmethyl)pyrazolo[4,3-b]pyridine]
69 | Fc1ccc(-c2cnc3cnn(CC(F)(F)C4CC4)c3c2)cc1OC(F)F [Example 109, 1-(2-Cyclopropyl-2,2-difluoro-ethyl)-6-[3-(difluoromethoxy)-4-fluoro-phenyl]pyrazolo[4,3-b]pyridine]
41 | CCC(=O)Cn1ncc2ncc(-c3ccc(F)c(C(C)(F)F)c3)cc21 [Example 37, 1-[6-[3-(1,1-Difluoroethyl)-4-fluoro-phenyl]pyrazolo[4,3-b]pyridin-1-yl]butan-2-one]
13 | O=C(Cn1ncc2ncc(-c3ccc(F)c(F)c3)cc21)C1CC1 [Example 65, 1-Cyclopropyl-2-[6-(3,4-difluorophenyl)pyrazolo[4,3-b]pyridin-1-yl]ethanone]
27 | CCC(=O)Cn1ncc2ncc(-c3cccc(C(F)F)c3)cc21 [Example 30, 1-[6-[3-(Difluoromethyl)phenyl]pyrazolo[4,3-b]pyridin-1-yl]butan-2-one]
12 | CCC(=O)Cn1ncc2ncc(-c3ccc(F)c(C)c3)cc21 [Example 32, 1-[6-(4-Fluoro-3-methyl-phenyl)pyrazolo[4,3-b]pyridin-1-yl]butan-2-one Trifluoroacetate Salt]
36 | O=C(Cn1ncc2ncc(-c3ccc(F)c(C(F)F)c3)cc21)c1cccs1 [Example 137, 2-[6-[3-(Difluoromethyl)-4-fluoro-phenyl]pyrazolo[4,3-b]pyridin-1-yl]-1-(2-thienyl)ethanone]
18 | O=C(Cn1ncc2ncc(-c3ccc(F)c(C(F)F)c3)cc21)C1CC1 [Example 76, 1-Cyclopropyl-2-[6-[3-(difluoromethyl)-4-fluoro-phenyl]pyrazolo[4,3-b]pyridin-1-yl]ethanone]
35 | Fc1ccc(-c2cnc3cnn(CC4CCCO4)c3c2)cc1C(F)F (racemic) [Example 18, (RS)-6-[3-(Difluoromethyl)-4-fluoro-phenyl]-1-(tetrahydrofuran-2-ylmethyl)pyrazolo[4,3-b]pyridine]
76 | O=C(Cn1ncc2ncc(-c3ccc(Cl)c(C(F)(F)F)c3)cc21)C1CC1 [Example 75, 2-[6-[4-Chloro-3-(trifluoromethyl)phenyl]pyrazolo[4,3-b]pyridin-1-yl]-1-cyclopropyl-ethanone]
13 | O=C(Cn1ncc2ncc(-c3ccc(F)cc3)cc21)C1CC1 [Example 59, 1-Cyclopropyl-2-[6-(4-fluorophenyl)pyrazolo[4,3-b]pyridin-1-yl]ethanone]
15 | Cc1ccc(-c2cnc3cnn(CC(=O)C4CC4)c3c2)s1 [Example 56, 1-Cyclopropyl-2-[6-(5-methyl-2-thienyl)pyrazolo[4,3-b]pyridin-1-yl]ethanone]
14 | O=C(Cn1ncc2ncc(-c3ccc(F)c(OC(F)F)c3)cc21)C1CC1 [Example 77, 1-Cyclopropyl-2-[6-[3-(difluoromethoxy)-4-fluoro-phenyl]pyrazolo[4,3-b]pyridin-1-yl]ethanone]
30 | O=C(Cn1ncc2ncc(-c3ccc(F)c(F)c3F)cc21)C1CC1 [Example 79, 1-Cyclopropyl-2-[6-(2,3,4-trifluorophenyl)pyrazolo[4,3-b]pyridin-1-yl]ethanone]
112 | O=C(Cn1ncc2ncc(-c3ccc(F)c(C(F)F)c3)cc21)c1ccccn1 [Example 14, 2-[6-[3-(Difluoromethyl)-4-fluoro-phenyl]pyrazolo[4,3-b]pyridin-1-yl]-1-(2-pyridyl)ethanone]
118 | O=C(Cn1ncc2ncc(-c3ccc(F)c(C(F)F)c3)cc21)c1ccncc1 [Example 139, 2-[6-[3-(Difluoromethyl)-4-fluoro-phenyl]pyrazolo[4,3-b]pyridin-1-yl]-1-(4-pyridyl)ethanone]
